Measured values reported in PubChem BioAssay (NCI).
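Method: 48-hour compound exposure of cells in 96-well plates, five concentrations, linear interpolation of endpoints. TGI denotes the concentration required for complete inhibition of growth.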

Key:
Assay in all cases: NCI anticancer screen, dose series, 48 h
786-0 renal = tested on: 786-0 renal
A498 renal = tested on: A498 renal
A549 NSCLC = tested on: A549 NSCLC
ACHN renal = tested on: ACHN renal
BT-549 breast = tested on: BT-549 breast
CAKI-1 renal = tested on: CAKI-1 renal
CCRF-CEM leukemia = tested on: CCRF-CEM leukemia
COLO 205 colon = tested on: COLO 205 colon
DU-145 prostate = tested on: DU-145 prostate
EKVX NSCLC = tested on: EKVX NSCLC
HCC-2998 colon = tested on: HCC-2998 colon
HCT-116 colon = tested on: HCT-116 colon
HCT-15 colon = tested on: HCT-15 colon
HOP-62 NSCLC = tested on: HOP-62 NSCLC
HOP-92 NSCLC = tested on: HOP-92 NSCLC
HS 578T breast = tested on: HS 578T breast
HT29 colon = tested on: HT29 colon
IGROV1 ovarian = tested on: IGROV1 ovarian
K-562 leukemia = tested on: K-562 leukemia
KM12 colon = tested on: KM12 colon
LOX IMVI melanoma = tested on: LOX IMVI melanoma
M14 melanoma = tested on: M14 melanoma
MALME-3M melanoma = tested on: MALME-3M melanoma
MCF7 breast = tested on: MCF7 breast
MDA-MB-231 breast = tested on: MDA-MB-231 breast
MDA-MB-435 = tested on: MDA-MB-435
MDA-N = tested on: MDA-N
MOLT-4 leukemia = tested on: MOLT-4 leukemia
NCI-H226 lung = tested on: NCI-H226 lung
NCI-H23 lung = tested on: NCI-H23 lung
NCI-H460 lung = tested on: NCI-H460 lung
NCI-H522 lung = tested on: NCI-H522 lung
NCI/ADR-RES ovarian = tested on: NCI/ADR-RES ovarian
OVCAR-3 ovarian = tested on: OVCAR-3 ovarian
OVCAR-4 ovarian = tested on: OVCAR-4 ovarian
OVCAR-5 ovarian = tested on: OVCAR-5 ovarian
OVCAR-8 ovarian = tested on: OVCAR-8 ovarian
PC-3 prostate = tested on: PC-3 prostate
RPMI-8226 leukemia = tested on: RPMI-8226 leukemia
RXF 393 renal = tested on: RXF 393 renal
SF-268 CNS = tested on: SF-268 CNS
SF-295 CNS = tested on: SF-295 CNS
SK-MEL-2 melanoma = tested on: SK-MEL-2 melanoma
SK-MEL-28 melanoma = tested on: SK-MEL-28 melanoma
SK-MEL-5 melanoma = tested on: SK-MEL-5 melanoma
SK-OV-3 ovarian = tested on: SK-OV-3 ovarian
SN12C renal = tested on: SN12C renal
SNB-19 CNS = tested on: SNB-19 CNS
SNB-75 CNS = tested on: SNB-75 CNS
SR leukemia = tested on: SR leukemia
SW-620 colon = tested on: SW-620 colon
T-47D breast = tested on: T-47D breast
TK-10 renal = tested on: TK-10 renal
U251 CNS = tested on: U251 CNS
UACC-257 melanoma = tested on: UACC-257 melanoma
UACC-62 melanoma = tested on: UACC-62 melanoma
UO-31 renal = tested on: UO-31 renal
SF-539 CNS = tested on: SF-539 CNS

Measured: TGI

CC1(C)CN=C(c2ccc3c(c2)Cc2cc(C4=NCC(C)(C)N4)ccc2-3)N1
49.9 µM: SK-MEL-2 melanoma
90.4 µM: K-562 leukemia
74.1 µM: HCC-2998 colon
86.5 µM: MCF7 breast
98.9 µM: MDA-MB-435
61.2 µM: MALME-3M melanoma
64.8 µM: U251 CNS
65.8 µM: RPMI-8226 leukemia
83.6 µM: NCI-H522 lung
69.5 µM: UACC-62 melanoma
not listed: SF-539 CNS
> 100 µM: all other assays above

CC(C)(C)[Si](C)(C)O[C@@H](C(=O)OC1C=CCCC1)[C@@H](NC(=O)c1ccccc1)c1ccccc1 (some centres not stated)
99.5 µM: HOP-92 NSCLC
94.9 µM: A549 NSCLC
9.89 µM: RPMI-8226 leukemia
62.9 µM: ACHN renal
44.4 µM: HCC-2998 colon
98 µM: T-47D breast
32.5 µM: CCRF-CEM leukemia
48.6 µM: SK-MEL-2 melanoma
49.5 µM: HT29 colon
41.2 µM: LOX IMVI melanoma
37.9 µM: SR leukemia
65.1 µM: SF-295 CNS
39.3 µM: MOLT-4 leukemia
59.9 µM: MCF7 breast
34.3 µM: RXF 393 renal
37.2 µM: SK-MEL-5 melanoma
42.2 µM: NCI-H460 lung
61.3 µM: SN12C renal
63.6 µM: NCI-H522 lung
76.8 µM: COLO 205 colon
37 µM: K-562 leukemia
not listed: M14 melanoma
> 100 µM: all other assays above

C=C1C(=O)OC2/C=C(\CO)C3OC3C3OC3(C)CC(OC(=O)/C(=C/C)CO)C12 (configuration not stated)
45.7 µM: RPMI-8226 leukemia
89 µM: SR leukemia
77.4 µM: CAKI-1 renal
45.6 µM: NCI-H522 lung
84.3 µM: MOLT-4 leukemia
68.6 µM: MALME-3M melanoma
65.4 µM: K-562 leukemia
> 100 µM: all other assays above
